Measured values as given in patent publication US20110269828A1, “COMPOSITIONS AND METHODS FOR TREATING AND PREVENTING WEIGHT-RELATED DISORDERS IN COMPANION ANIMALS” (Hill's Pet Nutrition, Inc., priority 2008, published 2011).

Columns and labels:
plasma metabolites = test: Metabolomics: fold change in metabolites measured in the blood at day 30; format: in vivo, dog
Experimental: Metabolomics: Plasma metabolites were analyzed and were compared as fold change relative to the control fed dogs.

GSH:GSSG ratio = test: Change in GSH:GSSG ratio in blood cells of dogs consuming DL-alpha lipoic acid in an extruded food; format: in vivo, dog
Excerpt: (§1) 30 adult, random source, dogs were utilized for this study. Dogs were at least 10 months of age, not pregnant, not lactating and of reasonable body weight prior to start of test. Animals were randomized into 5 groups for dietary treatment with 3 males and 3 females per each group.
All dogs were fed a control food (0 ppm dl-alpha-lipoic acid added) that met or exceeded all recommendations for nutrients as proposed by the American Association of Feed Control Officials (AAFCO 2000) during a 2 week prefeeding period (Table 2). Following the prefeeding period dogs were randomized into 5 treatment groups with one of the following dl-alpha lipoic acid target-inclusions (dry matter basis): 0 ppm, 150 ppm, 1500 ppm, 3000 ppm, 4500 ppm. In all diets, control and alpha lipoic acid, Vitamin E was added and was present at a level of 600-1000 International Units and Vitamin C was added at levels of 100-200 ppm.
Blood was collected aseptically for complete blood count, and blood biochemistry analysis 2 weeks prior to start and again at […], 56, 84, 112, 140 and 168 days of the study. In addition, 15 ml of whole blood was collected for isolation of lymphocytes at day 0, 28 and 84 of the dietary intervention.
Heparinized whole blood was layered onto a 50 ml Accuspin conical centrifuge tube (Sigma Chemical) and an equal volume of Phosphate buffered saline (PBS) was added. Samples were centrifuged at 700 g for 30 minutes without brake. The monocyte layer was harvested, transferred to a 15 ml conical centrifuge tube, resuspended in 1-3 ml of PB, and centrifuged as before (First wash). A second wash was performed as the first wash. Finally, cells were harvested and suspended in perchloric acid (10% w/v) and frozen at −70° C., until analysis.
Samples were transferred from −70° C. freezer into a cooler with dry ice in it. Vials were centrifuged at 12,000 rpm for 5 minutes in a refrigerated centrifuge. An aliquot of supernatant for glutathione (GSH) analysis was transferred to a conical test tube.
Derivatization of the acid soluble extracts was by the method of Reed and coworkers (Fariss et al) as modified by Jones (Jones et al)
Briefly, 150 μL extract or external standards were added into a 1.5 ml Eppendorf tube followed by addition of 20μγ-Glu-Glu internal standard and 50 μL IAA added followed by mixing. The solution was adjusted to pH about 10 (purple color) by using KOH—KHCO3 working solution. Solutions were incubated 1 hr, under room temperature in the dark. Sanger's reagent was added at the same volume as of the total volume and the solution was incubated overnight (20 hrs) in the dark at room temperature.
After incubation, the solution was centrifuged at 12000 rpm for 5 minutes with the supernatant transferred into another 1.5 ml eppendorf tube.
Solvents and separation conditions were as described (Fariss, Jones). Levels of GSH and GSSG were quantified relative to authentic standards. Gamma-glutamyl-glutamate was used as an internal standard to assess derivatization efficiency.
Comparison of values for clinical chemistry, hematology and body weights vs baseline were analyzed by way of paired t-test on SAS for windows with significance set at P<0.05. Means of values at each measured time point were separated by a one-way ANOVA with significance set at P<0.05. The difference in GSH:GSSG between day 84 and baseline were analyzed between groups by way of SAS for windows in a one-way ANOVA with significance set at P<0.05.

[1] = test system: type II collagen C-propeptide and carboxy-terminal crosslinked telopeptide fragment of type II collagen; test: Serum cartilage markers by ELISA; format: in vivo, dog; conditions: vs a similar food without lipoic acid, day 0 as covariate
Experimental: Biomarker measurements: Serum cartilage markers were measured using ELISA based kits to determine concentrations of cartilage markers. Day 0 was used as a covariate in the analysis to adjust for baseline values.

dogs [2] = test: Body composition (DEXA) of dogs over 90 days; format: in vivo, dog
Excerpt: 30 dogs were used to determine the effect of lipoic acid when compared to an AAFCO control food or a test food containing fish oil.
Table 9 illustrates Dual Energy X-Ray Absorptiometry (DEXA) measurement for dogs after being fed a control diet compared with dogs fed a pet food including lipoic acid for 90 days. The measurement of body fat using DEXA is more accurate than body weight for assessing health. A dog can have a lot of muscle, but be considered “over-weight” by many height/weight charts. The opposite can also be true—a dog can have a lot of fat and little muscle and be “over-fat” but not overweight.

dogs [3] = test: 6 month feeding study of dl-alpha-lipoic acid in dogs: body weight, physical examination, safety; format: in vivo
Excerpt: as §1
All dogs were fed a control food (0 ppm dl-alpha-lipoic acid added) that met or exceeded all recommendations for nutrients as proposed by the American Association of Feed Control Officials (AAFCO 2000) during a 2 week prefeeding period (Table 2). […]
Test foods were the sole source of nutrients except for water. […] After dogs were selected and initial body weights taken, a food dose was calculated for each dog based on the expected ME of the food. Initial food dose calculations were based on the maintenance energy requirement (MER) for the dog modified by a factor to account for normal activity as calculated by the following formula: […]
Dogs were weighed weekly and had food doses adjusted as needed in order to feed enough food to maintain their optimal body weight. Optimal body weight was determined to be 3 on a 5 point scale. […] All measures of body weight and food intake were recorded. […]
Comparison of values for clinical chemistry, hematology and body weights vs baseline were analyzed by way of paired t-test on SAS for windows with significance set at P<0.05. […]

dogs [4] = test: Percentage of animals classifying genomically fat; format: in vivo, dog
Excerpt: Table 6 illustrates the percentage of dogs classified as genomically fat after being fed a control diet compared with dogs fed a control plus fish oil and a control plus lipoic acid for 30 days.

[5] = test system: genes related to cartilage and energy metabolism; test: Differential gene expression profile in whole blood (canine 2 Affymetrix genechips); format: in vivo, dog
Excerpt: A differential gene expression profile was studied between an AAFCO control food, a food containing fish oil, and a food containing lipoic acid. At a minimum of 1.3 fold change, a list of 1212 genes was generated compared to the AAFCO control and 1896 genes compared to the food containing fish oil at d 30.
RNA extraction: Total RNAs were isolated from whole blood samples using the PAXgene RNA isolation kit. All measurements were done with the canine 2 Affymetrix genechips. For statistical analysis, all measurements were normalized with RMA. All analysis was preformed using Partek. An ANOVA t-test was performed for genes that are differentially expressed between the control and test foods were selected based on p-value cutoff 0.1, fold change >+/−1.3.

[6] = day 30, day 0 values as covariate
[7] = dogs fed a food containing lipoic acid
[8] = body composition over 90 days, dogs
[9] = lipoic acid vs. control, cartilage metabolism
[10] = lipoic acid vs. control, energy metabolism
[11] = lipoic acid vs. fish oil, cartilage metabolism
[12] = lipoic acid vs. fish oil, energy metabolism

SMILES: O=C(O)CCCCC1CCSS1 (racemic) [Lipoic Acid, dl-alpha-lipoic acid]
- Change in pyruvate blood levels (plasma metabolites; 30 day treatment period, vs control and control plus fish oil): greatest change in pyruvate blood levels
- Kidney markers in blood (plasma metabolites; after 30 days, control plus lipoic acid): decreased kidney markers
- Fold change in pyruvate measured in the blood, Lipoic acid vs Control (plasma metabolites; [6]): 0.5379
- Fold change in pyruvate measured in the blood, Lipoic acid vs Fish oil (plasma metabolites; [6]): 0.6274
- Plasma hydroxyproline (plasma metabolites; [7]): reduced in plasma
- Difference in GSH:GSSG ratio- day 0 to day 84 compared to baseline food (GSH:GSSG ratio; 150 ppm inclusion in extruded food, mean +/- spread): 70 +/− 20
- Difference in GSH:GSSG ratio- day 0 to day 84 compared to baseline food (GSH:GSSG ratio; 1,500 ppm inclusion in extruded food): 24 +/− 7
- Difference in GSH:GSSG ratio- day 0 to day 84 compared to baseline food (GSH:GSSG ratio; 3,000 ppm inclusion in extruded food): 10 +/− 4
- Difference in GSH:GSSG ratio- day 0 to day 84 compared to baseline food (GSH:GSSG ratio; 4,500 ppm inclusion in extruded food): 50 +/− 36
- Effect on GSH to GSSG ratio (GSH:GSSG ratio; chronic feeding in diet): improves the reduced glutathione (GSH) to oxidized glutathione (GSSG) ratio
- Change in carboxy-terminal crosslinked telopeptide fragment of type II collagen [1]: greater decrease
- Change in type II collagen C-propeptide [1]: greater decrease
- Change in weight (dogs [2]; 90 day treatment period, vs control and control plus fish oil): greatest change in weight
- Total Weight (dogs [2]; [8]): 13,800 g
- Total fat (dogs [2]; [8]): 2788.3 g
- Body fat (dogs [2]; [7]): lost fat
- Change in fat (dogs [2]; over 90 days, dogs): -587.2 g
- Change in weight (dogs [2]; over 90 days, dogs): -637.5 g
- Body weight (dogs [3]; 4500 ppm inclusion group, change appeared to reverse by 6 months): some weight loss occurred initially
- Chronic feeding in diet: safety (dogs [3]; dog, in vivo): safe and effective
- Genomic resemblance to physically fat dogs (dogs [4]; after a 30 day treatment period, control plus lipoic acid): genomically did not resemble physically fat dogs
- Percentage of animals at d 30 that classified fat using genomic markers (dogs [4]; d 30, dogs): 0%
- Fold change 12-lipooxygenase [5, 9]: −1.3
- Fold change Chondroitan sulfate synthase 1 [5, 9]: 1.4
- Fold change Facilitated glucose transporter 9 [5, 9]: 1.4
- Fold change Prolyl hydroxylase alpha 1 [5, 9]: 1.4
- Fold change Prolyl hydroxylase alpha 2 [5, 9]: 1.3
- Fold change TIMP1 [5, 9]: 1.3
- Fold change chondroitan sulfate proteoglycan 2 (veriscan) [5, 9]: 1.5
- Fold change heparan sulfate N-deacetylase/N-sulfotransferase 2 [5, 9]: 1.3
- Fold change 5′ AMP alpha 1 [5, 10]: 1.3
- Fold change 5′ AMP beta 1 [5, 10]: 1.3
- Fold change 5′ AMP gamma 2 [5, 10]: 1.4
- Fold change Facilitated glucose transporter 1 [5, 10]: 1.3
- Fold change Facilitated glucose transporter 6 [5, 10]: 1 .3
- Fold change Fatty acid desaturase 1 [5, 10]: 1.9
- Fold change Hexokinase 3 [5, 10]: 1.3
- Fold change PDK4 [5, 10]: 1.4
- Fold change PPAR gamma [5, 10]: 1.3
- Fold change Succinyl CoA ligase alpha [5, 10]: 1.3
- Fold change 12-lipooxygenase [5, 11]: −1.3
- Fold change ADAMTS-2 [5, 11]: −1.3
- Fold change ADAMTS-10 [5, 11]: −1.3
- Fold change ADAMTS-16 [5, 11]: −1.3
- Fold change Chondroitan sulfate synthase 1 [5, 11]: 1.3
- Fold change Facilitated glucose transporter 9 [5, 11]: 1.4
- Fold change Fibronectin 1 [5, 11]: 1.4
- Fold change Lysyl hydroxylase [5, 11]: 1.3
- Fold change MMP2 [5, 11]: −1.3
- Fold change MMP7 [5, 11]: −1.3
- Fold change N-acetylgalactosaminyltransferase 1 [5, 11]: 1.3
- Fold change Transforming growth factor beta receptor 1 [5, 11]: 1.3
- Fold change chondroitan sulfate proteoglycan 2 (veriscan) [5, 11]: 1.5
- Fold change 5′ AMP alpha 1 [5, 12]: 1.3
- Fold change 5′ AMP beta 1 [5, 12]: 1.3
- Fold change 5′ AMP gamma 2 [5, 12]: 1.5
- Fold change Facilitated glucose transporter 1 [5, 12]: 1.3
- Fold change Facilitated glucose transporter 6 [5, 12]: 1.4
- Fold change Hexokinase 3 [5, 12]: 1.3
- Fold change PDK4 [5, 12]: 1.6
- Fold change PPAR gamma [5, 12]: 1.3
- Fold change SREBP-1 [5, 12]: −1.3
- Fold change Succinyl CoA ligase alpha [5, 12]: 1.3
- Fold change Succinyl CoA ligase beta [5, 12]: 1.3
- Fold change cAMP responsice element modulator [5, 12]: 1.3
